Values after ≈ are worked out from the molar mass of the structure shown. Where two headings read alike, the source gives them in different places.
Key:
[1] = test system: Bacillus cereus (clinical isolate); assay: Antibacterial microdilution (MIC/MBC); type: cell-based; details: Bacillus cereus, B.c. (B. cereus); for MIC: read-out: MIC
Protocol: (§1) The synthesized compounds (Table 1) were evaluated for their antibacterial activity against a panel of eight species using a microdilution method with ampicillin and streptomycin as reference drugs. […] The order of activity can be presented as: 8 > 11 > 2 > 1 > 12 > 3 > 17 > 7 > 5 > 13 > 14 > 16 > 9 > 4 = 6 > 15 > 10. […] Cloacae. […] The most sensitive bacteria appeared to be En. cloacae, while E. coli was the most resistant one, followed by M. flavus.
(§2) The following Gram-negative bacteria: Escherichia coli (ATCC 35210), Enterobacter cloacae (clinical isolate), Salmonella typhimurium (ATCC 13311), as well as Gram-positive bacteria: Listeria monocytogenes (NCTC 7973), Bacillus cereus (clinical isolate), and Staphylococcus aureus (ATCC 6538) were used. The organisms were obtained from the Mycological Laboratory, Department of Plant Physiology, Institute for Biological Research “Siniša Stankovic”, Belgrade, Serbia. The minimum inhibitory (MIC) and minimum bactericidal (MBC) concentrations were determined by the modified microdilution method, as previously reported.

[2] = test system: Staphylococcus aureus (ATCC 6538); assay: Antibacterial microdilution (MIC/MBC); type: cell-based; details: S.a. (S. aureus)
Protocol: as §1, §2

[3] = test system: Escherichia coli (ATCC 35210); assay: Antibacterial microdilution (MIC/MBC); type: cell-based; details: Escherichia coli, ATCC35210, E. coli; for MIC: read-out: MIC
Protocol: as §1, §2

[4] = test system: Enterobacter cloacae (clinical isolate); assay: Antibacterial microdilution (MIC/MBC); type: cell-based; details: Enterobacter cloacae, En.cl (En. cloacae); for MIC: read-out: MIC
Protocol: as §1, §2

[5] = test system: Listeria monocytogenes (NCTC 7973); assay: Antibacterial microdilution (MIC/MBC); type: cell-based; details: Listeria monocytogenes, NCTC7973, L.m. (L. monocytogenes); for MIC: read-out: MIC
Protocol: as §1, §2

[6] = test system: Salmonella typhimurium (ATCC 13311); assay: Antibacterial microdilution (MIC/MBC); type: cell-based; details: Salmonella enterica, S.t. (S. typhimurium); for MIC: read-out: MIC
Protocol: as §1, §2

M. flavus = assay: Antibacterial microdilution (MIC/MBC); type: cell-based; details: Micrococcus flavus; M.f. (M. flavus)
Protocol: as §1, §2

P. aeruginosa = assay: Antibacterial microdilution (MIC/MBC); type: cell-based; details: Pseudomonas aeruginosa, P.a. (P. aeruginosa); for MIC: read-out: MIC
Protocol: as §1, §2

[7] = test system: Penicillium verrucosum var. cyclopium (food isolate); assay: Antifungal bioassay (MIC/MFC); type: cell-based
Protocol: For the antifungal bioassays, six fungi were used: Aspergillus niger (ATCC 6275), Aspergillus fumigatus (ATCC 1022), Aspergillus versicolor (ATCC 11730), Penicillium funiculosum (ATCC 36839), Trichoderma viride (IAM 5061), and Penicillium verrucosum var. cyclopium (food isolate). The organisms were obtained from the Mycological Laboratory, Department of Plant Physiology, Institute for Biological Research “Siniša Stankovic”, Belgrade, Serbia. All experiments were performed in duplicate.

P. ochrochloron = assay: Antifungal bioassay (MIC/MFC); type: cell-based; details: Penicillium ochrochloron; for MFC: P.o. (P. ochrochloron); for MIC: P.o. (P. ochrochloron; text: P. ochramensis), read-out: MIC
Protocol: (§3) For the antifungal bioassays, six fungi were used: […] The organisms were obtained from the Mycological Laboratory, Department of Plant Physiology, Institute for Biological Research “Siniša Stankovic”, Belgrade, Serbia. All experiments were performed in duplicate.

[8] = test system: Aspergillus niger (ATCC 6275); assay: Antifungal bioassay (MIC/MFC); type: cell-based; details: ATCC6275, A.n. (A. niger)
Protocol: as §3

[9] = test system: Penicillium funiculosum (ATCC 36839); assay: Antifungal bioassay (MIC/MFC); type: cell-based; details: Talaromyces funiculosus, ATCC36839; P.f. (P. funiculosum)
Protocol: as §3

[10] = test system: Aspergillus fumigatus (ATCC 1022); assay: Antifungal bioassay (MIC/MFC); type: cell-based; details: ATCC1022, A.f. (A. fumigatus)
Protocol: as §3

A. ochraceus = assay: Antifungal bioassay (MIC/MFC); type: cell-based; details: Aspergillus ochraceus, A.o. (A. ochraceus); for MIC: read-out: MIC
Protocol: as §3

[11] = test system: Aspergillus versicolor (ATCC 11730); assay: Antifungal bioassay (MIC/MFC); type: cell-based; details: ATCC11730, A.v. (A. versicolor)
Protocol: as §3

[12] = Staphylococcus aureus, ATCC6538
[13] = Staphylococcus aureus, ATCC6538, read-out: MIC

## COC(=O)c1[nH]c2cc(OC)ccc2c1/C=C1\SC(=S)N(c2cccc(F)c2)C1=O [Compound 13, (Z)-methyl 3-((3-(3-fluorophenyl)-4-oxo-2-thioxothiazolidin-5-ylidene)methyl)-6-methoxy-1H-indole-2-carboxylate]
[1]
  MBC: 60 ± 6 µg/mL (≈ 136 µM)
  MIC: 30 ± 10 µg/mL (≈ 67.8 µM)
[2]; [12]
  MBC: 30 ± 10 µg/mL (≈ 67.8 µM)
[2]; [13]
  MIC: 15 ± 9 µg/mL (≈ 33.9 µM)
[3]
  MBC: 60 ± 6 µg/mL (≈ 136 µM)
  MIC: 45 ± 3 µg/mL (≈ 102 µM)
[4]
  MBC: 30 ± 10 µg/mL (≈ 67.8 µM)
  MIC: 15 ± 9 µg/mL (≈ 33.9 µM)
[5]
  MBC: 60 ± 6 µg/mL (≈ 136 µM)
  MIC: 30 ± 10 µg/mL (≈ 67.8 µM)
[6]
  MBC: 60 ± 6 µg/mL (≈ 136 µM)
  MIC: 30 ± 10 µg/mL (≈ 67.8 µM)
M. flavus
  MBC: 60 ± 6 µg/mL (≈ 136 µM)
  MIC: 45 ± 3 µg/mL (≈ 102 µM)
P. aeruginosa
  MBC: 60 ± 6 µg/mL (≈ 136 µM)
  MIC: 30 ± 10 µg/mL (≈ 67.8 µM)
[7]
  MFC: 30 ± 10 µg/mL (≈ 67.8 µM)
  MIC: 15 ± 3 µg/mL (≈ 33.9 µM)
other
  melting point: 238 to 240 °C
P. ochrochloron
  MFC: 30 ± 10 µg/mL (≈ 67.8 µM)
  MIC: 15 ± 3 µg/mL (≈ 33.9 µM)
[8]
  MFC: 30 ± 10 µg/mL (≈ 67.8 µM)
  MIC: 15 ± 3 µg/mL (≈ 33.9 µM)
[9]
  MFC: 30 ± 10 µg/mL (≈ 67.8 µM)
  MIC: 15 ± 3 µg/mL (≈ 33.9 µM)
[10]
  MFC: 120 ± 40 µg/mL (≈ 271 µM)
  MIC: 60 ± 6 µg/mL (≈ 136 µM)
A. ochraceus
  MFC: 15 ± 3 µg/mL (≈ 33.9 µM)
  MIC: 8 ± 0.6 µg/mL (≈ 18.1 µM)
[11]
  MFC: 30 ± 10 µg/mL (≈ 67.8 µM)
  MIC: 15 ± 3 µg/mL (≈ 33.9 µM)

## COC(=O)c1[nH]c2ccc(F)cc2c1/C=C1\SC(=S)N(CCC(=O)O)C1=O [Compound 14, (Z)-3-(5-((5-fluoro-2-(methoxycarbonyl)-1H-indol-3-yl)methylene)-4-oxo-2-thioxothiazolidin-3-yl)propanoic acid]
[1]
  MBC: 60 ± 6 µg/mL (≈ 147 µM)
  MIC: 30 ± 10 µg/mL (≈ 73.5 µM)
[2]; [12]
  MBC: 60 ± 6 µg/mL (≈ 147 µM)
[2]; [13]
  MIC: 30 ± 10 µg/mL (≈ 73.5 µM)
[3]
  MBC: 60 ± 6 µg/mL (≈ 147 µM)
  MIC: 45 ± 3 µg/mL (≈ 110 µM)
[4]
  MBC: 30 ± 10 µg/mL (≈ 73.5 µM)
  MIC: 15 ± 9 µg/mL (≈ 36.7 µM)
[5]
  MBC: 60 ± 6 µg/mL (≈ 147 µM)
  MIC: 45 ± 3 µg/mL (≈ 110 µM)
[6]
  MBC: 60 ± 6 µg/mL (≈ 147 µM)
  MIC: 45 ± 3 µg/mL (≈ 110 µM)
M. flavus
  MBC: 60 ± 6 µg/mL (≈ 147 µM)
  MIC: 45 ± 3 µg/mL (≈ 110 µM)
P. aeruginosa
  MBC: 30 ± 10 µg/mL (≈ 73.5 µM)
  MIC: 15 ± 9 µg/mL (≈ 36.7 µM)
[7]
  MFC: 30 ± 10 µg/mL (≈ 73.5 µM)
  MIC: 15 ± 3 µg/mL (≈ 36.7 µM)
other
  melting point: 275 to 276 °C
P. ochrochloron
  MFC: 30 ± 10 µg/mL (≈ 73.5 µM)
  MIC: 15 ± 3 µg/mL (≈ 36.7 µM)
[8]
  MFC: 30 ± 10 µg/mL (≈ 73.5 µM)
  MIC: 15 ± 3 µg/mL (≈ 36.7 µM)
[9]
  MFC: 30 ± 10 µg/mL (≈ 73.5 µM)
  MIC: 15 ± 3 µg/mL (≈ 36.7 µM)
[10]
  MFC: 120 ± 40 µg/mL (≈ 294 µM)
  MIC: 60 ± 6 µg/mL (≈ 147 µM)
A. ochraceus
  MFC: 30 ± 10 µg/mL (≈ 73.5 µM)
  MIC: 15 ± 3 µg/mL (≈ 36.7 µM)
[11]
  MFC: 30 ± 10 µg/mL (≈ 73.5 µM)
  MIC: 15 ± 3 µg/mL (≈ 36.7 µM)

## COC(=O)c1[nH]c2ccccc2c1/C=C1\SC(=S)N(CCC(=O)O)C1=O [Compound 17, (Z)-3-(5-((2-(methoxycarbonyl)-1H-indol-3-yl)methylene)-4-oxo-2-thioxothiazolidin-3-yl)propanoic acid]
[1]
  MBC: 60 ± 6 µg/mL (≈ 154 µM)
  MIC: 30 ± 10 µg/mL (≈ 76.8 µM)
[2]
  MIC: 8 ± 0.6 µg/mL (≈ 20.5 µM)
[2]; [12]
  MBC: 15 µg/mL (≈ 38.4 µM)
[2]; [13]
  MIC: 8 µg/mL (≈ 20.5 µM)
[3]
  MBC: 60 ± 6 µg/mL (≈ 154 µM)
  MIC: 45 ± 3 µg/mL (≈ 115 µM)
[4]
  MBC: 15 ± 9 µg/mL (≈ 38.4 µM)
  MIC: 8 ± 0.6 µg/mL (≈ 20.5 µM)
[5]
  MBC: 60 ± 6 µg/mL (≈ 154 µM)
  MIC: 30 ± 10 µg/mL (≈ 76.8 µM)
[6]
  MBC: 60 ± 6 µg/mL (≈ 154 µM)
  MIC: 30 ± 10 µg/mL (≈ 76.8 µM)
M. flavus
  MBC: 60 ± 6 µg/mL (≈ 154 µM)
  MIC: 30 ± 10 µg/mL (≈ 76.8 µM)
P. aeruginosa
  MBC: 15 ± 9 µg/mL (≈ 38.4 µM)
  MIC: 8 µg/mL (≈ 20.5 µM)
[7]
  MFC: 60 ± 6 µg/mL (≈ 154 µM)
  MIC: 30 ± 10 µg/mL (≈ 76.8 µM)
other
  melting point: 265 to 266 °C
P. ochrochloron
  MFC: 30 ± 10 µg/mL (≈ 76.8 µM)
  MIC: 15 ± 3 µg/mL (≈ 38.4 µM)
[8]
  MFC: 15 ± 3 µg/mL (≈ 38.4 µM)
  MIC: 22 ± 5 µg/mL (≈ 56.3 µM)
[9]
  MFC: 30 ± 10 µg/mL (≈ 76.8 µM)
  MIC: 15 ± 3 µg/mL (≈ 38.4 µM)
[10]
  MFC: 120 ± 40 µg/mL (≈ 307 µM)
  MIC: 60 ± 6 µg/mL (≈ 154 µM)
A. ochraceus
  MFC: 15 ± 3 µg/mL (≈ 38.4 µM)
  MIC: 8 ± 0.6 µg/mL (≈ 20.5 µM)
[11]
  MFC: 30 ± 10 µg/mL (≈ 76.8 µM)
  MIC: 15 ± 3 µg/mL (≈ 38.4 µM)
